In brackets after ≈: the same amount, converted by molar mass. Entries after “also recorded” stand apart in the source; their conditions may differ. Like-named read-outs stand apart in the source and are kept apart here.
Assays:
[1] = Aqueous solubility test in 0.001N HCl; type: physicochemical; conditions: 0.001 N HCl aqueous buffer, simulated gastric fluid, kinetic from dmso stock; thermodynamic solubility, HPLC, pH=3, room temperature, 24 h
Experimental: (§1) The inhibitory effects of the new analogs on HUVEC proliferation were measured using a [3H]-thymidine incorporation assay. The log P values, used as an indicator of lipophilicity, were calculated using ALOGPS2.1 software. Aqueous solubility is a key physiochemical property relevant for oral absorption. We determined the solubility of each analog in 0.001 N HCl (pH=3), which represents the acidic human gastric fluid.
Aqueous solubility test. In a 1.5 mL microcentrifuge tube, 2 ul of 10 mM compound stock solution in DMSO was added to 1 mL 0.001N HCl aqueous buffer to obtain saturated solution. The resulting mixture was shaken under 600 rpm for 24 h at room temperature. Then the tube was centrifuged at 13,000 rpm for 5 min to remove the undissolved compound. 100 ul of the supernatant was injected to an Agilent 6120 LC/MS for analysis. The mass spectrometry data was collected under SIM/Scan mode. The ions of compound Exact Mass+1 and Exact Mass+23 were monitored as selected ion monitoring (SIM) for peak area integration. Solubility was calculated according to the concentration standard curve of each compound.

HUVEC [2] = experiment: HUVEC proliferation, [3H]-thymidine incorporation assay; type: cell-based; conditions: Homo sapiens, mean ± SD, three independent experiments, read-out: HUVEC inhibition IC50
CYP3A4 = biological target: T1, CYP3A4 (Homo sapiens, UniProt P08684); experiment: CYP3A4 enzyme assay (Vivid CYP3A4 Green Screening Kit); type: in vitro ADME; conditions: for CYP3A4 Inhibition (compared to intracozanole at 1 um): % enzyme inhibition at 1 uM drug / % enzyme inhibition at 1 uM itraconazole; for CYP3A4 inhibition, in words: dose response or compared with itraconazole
T1 construct: purchased ThermoFisher P2857; host or cells: baculosomes (insect-cell microsomes, own knowledge)
Experimental: And CYP3A4 inhibition was initially determined using a cell-free fluorescence-based assay at a final concentration of 1 μM (Table 2).
CYP3A4 enzyme assay. CYP3A4 enzyme activity was tested using Vivid™ CYP3A4 Green Screening Kit (ThermoFisher, #P2857) using the manufacturer's protocol. Briefly, CYP3A4 baculosomes and drugs were incubated 10 min at 37° C. Then Vivid® Substrates were added and the fluorescence (ex/em:485/520) were read every 1 min for 60 minute.

HUVEC [3] = experiment: HUVEC proliferation, [3H]-thymidine incorporation assay; type: cell-based, human; conditions: for Proliferation (IC50/IC50 Itra): HUVEC IC50 relative to itraconazole; for IC50: Homo sapiens, HUVEC, [3H]-thymidine incorporation, unit inferred, values in μM, read-out: Proliferation IC50
Experimental: as §1
HUVEC Culture and Proliferation Assays. HUVEC (Lonza) were grown in EGM-2 bullet kit media (Lonza) and used at passage eight or lower. The H thymidine incorporation assays were conducted as previously described. Briefly, cells were seeded on 96-well plate at a concentration of 2000 cells/well and allowed to settle overnight. Drugs were added to each well in triplicate. After 24 hours, cells were treated with 1 μCi of [3H] thymidine for 6 h. Then cells were harvested and transferred to filtermats. The scintillation were counted and IC50 were determined using Prism software (version 6.0).

T1 sequence (P08684 whole entry): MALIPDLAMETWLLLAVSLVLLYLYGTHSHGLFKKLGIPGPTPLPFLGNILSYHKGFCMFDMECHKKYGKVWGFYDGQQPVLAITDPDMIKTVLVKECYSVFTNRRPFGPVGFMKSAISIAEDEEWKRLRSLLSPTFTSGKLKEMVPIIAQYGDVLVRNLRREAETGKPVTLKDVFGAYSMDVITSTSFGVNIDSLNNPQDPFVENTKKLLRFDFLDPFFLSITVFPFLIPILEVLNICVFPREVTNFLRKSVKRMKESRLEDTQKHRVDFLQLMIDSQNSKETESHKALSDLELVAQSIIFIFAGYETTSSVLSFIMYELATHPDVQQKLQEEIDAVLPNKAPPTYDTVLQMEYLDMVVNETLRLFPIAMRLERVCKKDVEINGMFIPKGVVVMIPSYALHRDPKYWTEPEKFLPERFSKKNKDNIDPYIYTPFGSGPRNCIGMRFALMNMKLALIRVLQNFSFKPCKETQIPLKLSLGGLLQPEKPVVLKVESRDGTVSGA

solubility at 24 h [1] [µg/mL]	CYP3A4 Inhibition (compared to intracozanole at 1 um) (CYP3A4)	SMILES	IC50 (HUVEC [2]) [nM]	CYP3A4 inhibition, in words (CYP3A4)	Proliferation (IC50/IC50 Itra) (HUVEC [3])	IC50 (HUVEC [3]) [µM]
6.48 (≈ 9.19 µM)		CCC(C)n1ncn(-c2ccc(N3CCN(c4ccc(OC[C@@H]5CO[C@@](Cn6ccnc6)(c6ccc(Cl)cc6Cl)O5)nc4)CC3)cc2)c1=O (stereo partly drawn) [Compound 2, 4-(4-(4-(6-(((2S,4R)-2-((1H-imidazol-1-yl)methyl)-2-(2,4-dichlorophenyl)-1,3-dioxolan-4-yl)methoxy)pyridin-3-yl)piperazin-1-yl)phenyl)-2-(sec-butyl)-2,4-dihydro-3H-1,2,4-triazol-3-one]	468 ± 42.2			
41.3 (≈ 58.6 µM)		CCC(C)n1ncn(-c2ccc(N3CCN(c4ccc(OC[C@@H]5CO[C@@](Cn6ccnc6)(c6ccc(Cl)cc6Cl)O5)cc4)CC3)cn2)c1=O (stereo partly drawn) [Compound 7, 4-(5-(4-(4-(((2S,4R)-2-((1H-imidazol-1-yl)methyl)-2-(2,4-dichlorophenyl)-1,3-dioxolan-4-yl)methoxy)phenyl)piperazin-1-yl)pyridin-2-yl)-2-(sec-butyl)-2,4-dihydro-3H-1,2,4-triazol-3-one]	636 ± 177			
	No inhibition	CCC(C)n1ncn(-c2ccc(N3CCN(c4ccc(OC[C@@H]5CO[C@@](Cn6cnc(C(F)(F)F)n6)(c6ccc(Cl)cc6Cl)O5)cc4)CC3)cc2)c1=O (stereo partly drawn) [Compound 51, 1-sec-butyl-4-(4-(4-(4-(((2S,4R)-2-(2,4-dichlorophenyl)-2-((3-(trifluoromethyl)-1H-1,2,4-triazol-1-yl)methyl)-1,3-dioxolan-4-yl)methoxy)phenyl)piperazin-1-yl)phenyl)-1H-1,2,4-triazol-5(4H)-one]		reduced potency; also recorded: eliminated CYP3A4 inhibition	1.6	
	0.08	CCC(C)n1ncn(-c2ccc(N3CCN(c4ccc(OC[C@@H]5CO[C@@](Cn6nnnc6C)(c6ccc(Cl)cc6Cl)O5)cc4)CC3)cc2)c1=O (stereo partly drawn) [Compound 52, 1-sec-butyl-4-(4-(4-(4-(((2S,4R)-2-(2,4-dichlorophenyl)-2-((5-methyl-1H-tetrazol-1-yl)methyl)-1,3-dioxolan-4-yl)methoxy)phenyl)piperazin-1-yl)phenyl)-1H-1,2,4-triazol-5(4H)-one]			0.6	
	0.22	CCC(C)n1ncn(-c2ccc(N3CCN(c4ccc(OC[C@@H]5CO[C@@](Cn6nnnc6-c6ccccc6)(c6ccc(Cl)cc6Cl)O5)cc4)CC3)cc2)c1=O (stereo partly drawn) [Compound 53, 1-sec-butyl-4-(4-(4-(4-(((2S,4R)-2-(2,4-dichlorophenyl)-2-((5-phenyl-1H-tetrazol-1-yl)methyl)-1,3-dioxolan-4-yl)methoxy)phenyl)piperazin-1-yl)phenyl)-1H-1,2,4-triazol-5(4H)-one]			0.7	
	0.03	CCC(C)n1ncn(-c2ccc(N3CCN(c4ccc(OC[C@@H]5CO[C@@](CBr)(c6ccc(Cl)cc6Cl)O5)cc4)CC3)cc2)c1=O (stereo partly drawn) [Compound 57, 4-(4-(4-(4-(((2S,4R)-2-(bromomethyl)-2-(2,4-dichlorophenyl)-1,3-dioxolan-4-yl)methoxy)phenyl)piperazin-1-yl)phenyl)-1-sec-butyl-1H-1,2,4-triazol-5(4H)-one]			3.0	0.569
	No inhibition	CCC(C)n1ncn(-c2ccc(N3CCN(c4ccc(OC[C@@H]5CO[C@@](CC)(c6ccc(Cl)cc6Cl)O5)cc4)CC3)cc2)c1=O (stereo partly drawn) [Compound 59, 1-sec-butyl-4-(4-(4-(4-(((2R,4R)-2-(2,4-dichlorophenyl)-2-ethyl-1,3-dioxolan-4-yl)methoxy)phenyl)piperazin-1-yl)phenyl)-1H-1,2,4-triazol-5(4H)-one]		totally lost CYP3A4 inhibition	2.1	
	No inhibition	CCC(C)n1ncn(-c2ccc(N3CCN(c4ccc(OC[C@@H]5CO[C@@](Cc6ccccc6)(c6ccc(Cl)cc6Cl)O5)cc4)CC3)cc2)c1=O (stereo partly drawn) [Compound 60, 4-(4-(4-(4-(((2R,4R)-2-benzyl-2-(2,4-dichlorophenyl)-1,3-dioxolan-4-yl)methoxy)phenyl)piperazin-1-yl)phenyl)-1-sec-butyl-1H-1,2,4-triazol-5(4H)-one]			3.0	0.513
	No inhibition	CCC(C)n1ncn(-c2ccc(N3CCN(c4ccc(OC[C@@H]5CO[C@@](CC6CCCC6)(c6ccc(Cl)cc6Cl)O5)cc4)CC3)cc2)c1=O (stereo partly drawn) [Compound 61, 1-sec-butyl-4-(4-(4-(4-(((2R,4R)-2-(cyclopentylmethyl)-2-(2,4-dichlorophenyl)-1,3-dioxolan-4-yl)methoxy)phenyl)piperazin-1-yl)phenyl)-1H-1,2,4-triazol-5(4H)-one]			3.0	
	No inhibition	CCC(C)n1ncn(-c2ccc(N3CCN(c4ccc(OC[C@@H]5COC(c6ccc(Cl)cc6Cl)O5)cc4)CC3)cc2)c1=O (stereo partly drawn) [Compound 62, 1-sec-butyl-4-(4-(4-(4-(((4R)-2-(2,4-dichlorophenyl)-1,3-dioxolan-4-yl)methoxy)phenyl)piperazin-1-yl)phenyl)-1H-1,2,4-triazol-5(4H)-one]			1.9	
	0.20	CCC(C)n1ncn(-c2ccc(N3CCN(c4ccc(OC[C@@H]5CO[C@@](CN6CCOCC6)(c6ccc(Cl)cc6Cl)O5)cc4)CC3)cc2)c1=O (stereo partly drawn) [Compound 63, 1-(sec-butyl)-4-(4-(4-(4-(((2S,4R)-2-(2,4-dichlorophenyl)-2-(morpholinomethyl)-1,3-dioxolan-4-yl)methoxy)phenyl)piperazin-1-yl)phenyl)-1H-1,2,4-triazol-5(4H)-one]			7.4	
	No inhibition	CCC(C)n1ncn(-c2ccc(N3CCN(c4ccc(OC[C@@H]5CO[C@@](CN(C)C)(c6ccc(Cl)cc6Cl)O5)cc4)CC3)cc2)c1=O (stereo partly drawn) [Compound 64, 1-(sec-butyl)-4-(4-(4-(4-(((2S,4R)-2-(2,4-dichlorophenyl)-2-((dimethylamino)methyl)-1,3-dioxolan-4-yl)methoxy)phenyl)piperazin-1-yl)phenyl)-1H-1,2,4-triazol-5(4H)-one]			8.8	
	0.21	CCC(C)n1ncn(-c2ccc(N3CCN(c4ccc(OC[C@@H]5CO[C@@](CN6CCN(C)CC6)(c6ccc(Cl)cc6Cl)O5)cc4)CC3)cc2)c1=O (stereo partly drawn) [Compound 65, 1-(sec-butyl)-4-(4-(4-(4-(((2S,4R)-2-(2,4-dichlorophenyl)-2-((4-methylpiperazin-1-yl)methyl)-1,3-dioxolan-4-yl)methoxy)phenyl)piperazin-1-yl)phenyl)-1H-1,2,4-triazol-5(4H)-one]			3.8	
	1.09	CCC(C)n1ncn(-c2ccc(N3CCN(c4ccc(OC[C@@H]5CO[C@@](CN6CCNCC6)(c6ccc(Cl)cc6Cl)O5)cc4)CC3)cc2)c1=O (stereo partly drawn) [Compound 66, 1-(sec-butyl)-4-(4-(4-(4-(((2S,4R)-2-(2,4-dichlorophenyl)-2-(piperazin-1-ylmethyl)-1,3-dioxolan-4-yl)methoxy)phenyl)piperazin-1-yl)phenyl)-1H-1,2,4-triazol-5(4H)-one]			2.5	
0.116 (≈ 0.164 µM)		CCC(C)n1ncn(-c2ccc(N3CCN(c4ccc(OC[C@@H]5CO[C@@](Cn6cncn6)(c6ccc(Cl)cc6Cl)O5)nc4)CC3)cc2)c1=O (stereo partly drawn) [Compound 100, 4-(4-(4-(6-(((2S,4R)-2-((1H-1,2,4-triazol-1-yl)methyl)-2-(2,4-dichlorophenyl)-1,3-dioxolan-4-yl)methoxy)pyridin-3-yl)piperazin-1-yl)phenyl)-2-(sec-butyl)-2,4-dihydro-3H-1,2,4-triazol-3-one]	687 ± 78.1			
0.0539 (≈ 0.0763 µM)		CCC(C)n1ncn(-c2ccc(N3CCN(c4ccc(OC[C@@H]5CO[C@@](Cn6cncn6)(c6ccc(Cl)cc6Cl)O5)cc4)CC3)nc2)c1=O (stereo partly drawn) [Compound 102, 4-(6-(4-(4-(((2S,4R)-2-((1H-1,2,4-triazol-1-yl)methyl)-2-(2,4-dichlorophenyl)-1,3-dioxolan-4-yl)methoxy)phenyl)piperazin-1-yl)pyridin-3-yl)-2-(sec-butyl)-2,4-dihydro-3H-1,2,4-triazol-3-one]	222 ± 23.1			

Reference: patent US12071430B2 (The Johns Hopkins University, priority 2011, dated 2024)
